Source: US20060115571A1, “Functional foods/drinks containing antiallergic component” (priority 2002, published 2006)

Test: stability during the process of preparing the hard candy
Details: powder of an extract of "Benifuki" made into hard candy
Description: Using a powder of an extract of “Benifuki”, a hard candy was prepared. Methylcatechin was contained at 2.7% in the powder of the extract, so one hard candy was designed to contain 3 mg of methylcatechin.

## O=C1C[C@@H]2OCC=C3CN4CC[C@]56c7ccccc7N1[C@H]5[C@H]2[C@H]3C[C@H]46 [Strychnine, strychnine]
  stability during the process of preparing the hard candy: stable
